The results in this text go back to patent publication US7842324B2 (Senomyx, Inc., priority 2005, dated 2010).

This assay has as its target T1, hT1R2/hT1R3 sweet receptor expressed in HEK293 cell line (Homo sapiens, UniProt Q7RTX0+Q8TE23).
T1 construct: expressed in transfected cells; host or cells: HEK293 derivative stably expressing Gα15 and hT1R2/hT1R3, clone S-9
T1 sequence (Q8TE23 20-839): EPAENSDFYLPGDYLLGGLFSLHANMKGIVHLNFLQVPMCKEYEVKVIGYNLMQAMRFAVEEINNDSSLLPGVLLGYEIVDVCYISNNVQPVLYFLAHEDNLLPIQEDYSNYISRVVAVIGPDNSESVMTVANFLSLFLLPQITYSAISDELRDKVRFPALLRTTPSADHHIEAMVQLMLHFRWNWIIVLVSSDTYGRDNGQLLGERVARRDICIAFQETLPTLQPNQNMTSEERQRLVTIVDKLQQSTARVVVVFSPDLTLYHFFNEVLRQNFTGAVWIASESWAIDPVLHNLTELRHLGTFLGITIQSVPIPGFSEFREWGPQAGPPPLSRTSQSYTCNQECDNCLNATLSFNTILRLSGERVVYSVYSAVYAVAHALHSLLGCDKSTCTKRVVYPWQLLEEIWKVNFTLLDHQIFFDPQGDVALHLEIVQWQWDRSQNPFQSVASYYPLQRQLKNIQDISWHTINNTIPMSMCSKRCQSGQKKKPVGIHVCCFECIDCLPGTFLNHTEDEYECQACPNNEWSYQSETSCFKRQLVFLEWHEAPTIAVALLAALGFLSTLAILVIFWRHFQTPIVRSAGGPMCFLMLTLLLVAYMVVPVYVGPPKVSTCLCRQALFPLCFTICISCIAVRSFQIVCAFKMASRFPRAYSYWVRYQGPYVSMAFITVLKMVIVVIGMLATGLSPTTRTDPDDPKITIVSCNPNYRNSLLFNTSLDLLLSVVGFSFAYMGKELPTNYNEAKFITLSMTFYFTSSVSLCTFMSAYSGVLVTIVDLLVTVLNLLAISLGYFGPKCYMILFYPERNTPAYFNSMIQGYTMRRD
T1 sequence (Q7RTX0 21-852): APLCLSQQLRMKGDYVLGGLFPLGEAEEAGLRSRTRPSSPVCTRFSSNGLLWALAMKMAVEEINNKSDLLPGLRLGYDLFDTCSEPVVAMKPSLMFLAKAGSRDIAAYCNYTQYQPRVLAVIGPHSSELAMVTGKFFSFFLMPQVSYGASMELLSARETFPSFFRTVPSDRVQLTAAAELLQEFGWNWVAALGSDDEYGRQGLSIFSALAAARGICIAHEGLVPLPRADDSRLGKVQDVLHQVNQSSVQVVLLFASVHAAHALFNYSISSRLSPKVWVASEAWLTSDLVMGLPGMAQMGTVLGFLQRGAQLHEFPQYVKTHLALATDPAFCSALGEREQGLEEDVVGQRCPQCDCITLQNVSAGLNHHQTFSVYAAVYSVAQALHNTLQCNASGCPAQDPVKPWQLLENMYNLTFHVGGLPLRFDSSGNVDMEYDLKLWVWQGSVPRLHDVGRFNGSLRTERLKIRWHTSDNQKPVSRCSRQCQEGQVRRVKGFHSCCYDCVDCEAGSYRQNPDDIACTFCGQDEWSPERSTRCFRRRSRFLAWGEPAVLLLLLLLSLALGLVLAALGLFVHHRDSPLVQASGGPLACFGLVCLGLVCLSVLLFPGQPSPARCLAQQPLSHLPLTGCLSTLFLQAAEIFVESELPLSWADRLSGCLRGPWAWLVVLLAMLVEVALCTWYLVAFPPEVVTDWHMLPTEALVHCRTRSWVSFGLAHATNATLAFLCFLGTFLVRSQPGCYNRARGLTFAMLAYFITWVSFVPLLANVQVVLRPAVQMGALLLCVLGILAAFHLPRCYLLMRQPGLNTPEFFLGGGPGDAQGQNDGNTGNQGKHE
The assay can be described thus: In vitro hT1R2/hT1R3-HEK293 taste receptor activation assay (FLIPR). Format: cell-based. The method, then:
An HEK293 cell line derivative (Chandrashekar et al., Cell (2000) 100:703-711) that stably expresses Gα15 and hT1R2/hT1R3 (Li et al., Proc Natl Acad Sci USA (2002) 99:4692-4696), see also PCT Publication No. WO 03/001876 A2) was used to identify compounds with sweet taste enhancing properties.
Compounds covered in this document were initially selected based on their activity on the hT1R2/hT1R3-HEK293-Gα15 cell line (Li et al. vide supra). Activity was determined using an automated fluorometric imaging assay on a FLIPR instrument ([…], Molecular Devices, Sunnyvale, Calif.) (designated FLIPR assay). Cells from one clone (designated S-9 cells) were seeded into 384-well plates (at approximately 50,000 cells per well) in a medium containing DMEM Low Glucose (Invitrogen, Carlsbad, Calif.), 10% dialyzed fetal bovine serum (Invitrogen, Carlsbad, Calif.), 100 Units/ml Penicillin G, and 100 μg/ml Streptomycin (Invitrogen, Carlsbad, Calif.) (Li et al. vide supra) see also PCT Publication No. WO 03/001876 A2). S-9 cells were grown for 24 hours at 37° C. S-9 cells were then loaded with the calcium dye Fluo-3AM (Molecular Probes, Eugene, Oreg.), 4 μM in a phosphate buffered saline (D-PBS) (Invitrogen, Carlsbad, Calif.), for 1 hour at room temperature. After replacement with 25 μl D-PBS, stimulation was performed in the FLIPR instrument and at room temperature by the addition of 25 μl D-PBS supplemented with different stimuli at concentrations corresponding to twice the desired final level. Receptor activity was quantified by determining the maximal fluorescence increases (using a 480 nm excitation and 535 nm emission) after normalization to basal fluorescence intensity measured before stimulation.
For dose-responses analysis, stimuli were presented in duplicates at 10 different concentrations ranging from 60 nM to 30 μM. Activities were normalized to the response obtained with 400 mM D-fructose, a concentration that elicits maximum receptor response. EC50s were determined using a non-linear regression algorithm (using a Senomyx, Inc. software), where the Hill slope, bottom asymptotes and top asymptotes were allow to vary. Identical results were obtained when analyzing the dose-response data using commercially available software for non-linear regression analysis such as GraphPad PRISM (San Diego, Calif.).

Setting [1] is: read-out: EC50 for activation of a hT1R2/hT1R3 sweet receptor expressed in HEK293 cell line.

Each structure is given as a SMILES string. Read-outs that look alike come from different tables or passages of the source.

Consider `CC[C@@H](C)NC(=O)C(C)(C)c1ccc(-c2cncc(C#N)n2)cc1` [Compound A50], for which, for the setting “Table A, read-out: SWEET EC50”, the EC50 is 370 nM. The same measure, in the same setting: for `CC(C)CNC(=O)C(C)(C)c1ccc(-c2cscn2)cc1` [Compound A32] the value was 5400 nM; for `CC(C)CNC(=O)C(C)(C)c1ccc(-c2cccc(C#N)c2CO)cc1` [Compound A80], 670 nM; for `CC(C)(C(=O)NC1CCC1)c1ccc(-c2cncc(C#N)c2)cc1` [Compound A51], 410 nM.

Take `CC(=O)c1ccccc1-c1ccc(C(C)(C)C(=O)NCC(C)C)cc1` [Compound A24]: the EC50 (Table A, read-out: SWEET EC50) was 1170 nM. On to `CC(C)CNC(=O)C(C)(C)c1ccc(-c2ccccc2C=O)cc1` [Compound 37, 2-(2′-formylbiphenyl-4-yl)-N-isobutyl-2-methylpropanamide], for which the EC50 under setting [1] is 810 nM. With `CC(C)CNC(=O)C(C)(C)c1ccc(-c2cocc2C#N)cc1` [Compound A48], the EC50 (Table A, read-out: SWEET EC50) was 320 nM. For `CCC(CC)NC(=O)C(C)(C)c1ccc(-c2cncc(C#N)c2)cc1` [Compound 21, 2-(4-(5-cyanopyridin-3-yl)phenyl)-2-methyl-N-(pentan-3-yl)propanamide], under setting [1], the EC50 is 70 nM. Turning to `CCC[C@@H](CO)NC(=O)C(C)(C)c1ccc(-c2cncc(C#N)c2)cc1` [Compound A69], the EC50 (Table A, read-out: SWEET EC50) is 1660 nM. Take `CC(C)CNC(=O)C(C)(C)c1ccc(-c2cccc([N+](=O)[O-])c2)cc1` [Compound 8, N-isobutyl-2-methyl-2-(3′-nitrobiphenyl-4-yl)propanamide]: the EC50 under setting [1] was determined as 400 nM. Same read-out and setting: for `Cc1cscc1-c1ccc(C(C)(C)C(=O)NCC(C)C)cc1O` [Compound 35, 2-(3-hydroxy-4-(4-methylthiophen-3-yl)phenyl)-N-isobutyl-2-methylpropanamide] the value was 1040 nM. On to `COc1ccc([C@@H](C)NC(=O)C(C)(C)c2ccc(-c3cncnc3)cc2)cc1` [Compound A88], for which the EC50 (Table A, read-out: SWEET EC50) was determined as 370 nM. In the case of `CC(C)CNC(=O)C(C)(C)c1cnn(-c2ccccc2)c1` [Compound 31, N-isobutyl-2-methyl-2-(1-phenyl-1H-pyrazol-4-yl)propanamide], under setting [1], the EC50 is 14900 nM. Regarding `CC(C)CNC(=O)C(C)(C)c1ccc(-c2cccc(OC(C)C)c2)cc1` [Compound 18, N-isobutyl-2-(3′-isopropoxybiphenyl-4-yl)-2-methylpropanamide], the EC50 under setting [1] amounted to 4200 nM.

In the case of `CC(NC(=O)C(C)(C)c1ccc(-c2cncc(C#N)c2)cc1)c1ccccc1` (stereo not drawn) [Compound A20], where the note is “Table A, read-out: SWEET EC50”, the EC50 came to 710 nM.

As to `CC(C)CNC(=O)C(NC(=O)OC(C)(C)C)c1ccc(-c2ccccc2)cc1` (stereo not drawn) [Compound 24, tert-butyl 1-(biphenyl-4-yl)-2-(isobutylamino)-2-oxoethylcarbamate], the EC50 under setting [1] was 7540 nM.

In the case of `CC(C)CNC(=O)C(C)(C)c1ccc(-c2ccccc2)c(O)c1` [Compound A67], the EC50 (Table A, read-out: SWEET EC50) turned out to be 1420 nM. Still for that read-out and setting: for `CC(C)CNC(=O)Cc1ccc(-c2ccccc2)cc1` [Compound A39] the value was 1540 nM.

As for `COC(=O)c1cncc(-c2ccc(C(C)(C)C(=O)NCC(C)C)cc2)c1` [Compound A73], for the setting “Table A, read-out: SWEET EC50”, the EC50 amounted to 540 nM. Still for that read-out and setting: for `CCOc1cncc(-c2ccc(C(C)(C)C(=O)NCC(C)C)cc2)c1` [Compound A68] the value was 1590 nM; for `CC(C(=O)NC1CC1)c1ccc(-c2ccccc2)c(F)c1` (stereo not drawn) [Compound A1], 3520 nM. `CC(C)CNC(=O)C(C)(C)c1ccc(-c2cccc(C#N)c2)cc1` [Compound 9, 2-(3′-cyanobiphenyl-4-yl)-N-isobutyl-2-methylpropanamide]: under setting [1], the EC50 was determined as 200 nM. On to `CC(C)CNC(=O)C(C)(C)c1ccc(-c2cccc(C(C)C)c2)cc1` [Compound A16], for which, for the setting “Table A, read-out: SWEET EC50”, the EC50 turned out to be 6000 nM.

Turning to `CC(C)CNC(=O)C(C)(C)c1ccc(-c2cccc(O)c2)cc1` [Compound 11, 2-(3′-hydroxybiphenyl-4-yl)-N-isobutyl-2-methylpropanamide], the EC50 under setting [1] turned out to be 1900 nM. For the compound `CC[C@@H](C)NC(=O)C(C)(C)c1ccc(-c2cncc(C#N)c2)cc1` [Compound A85], the EC50 (Table A, read-out: SWEET EC50) worked out at 150 nM.

Take `Cc1cccc(-c2ccc(C(C)(C)C(=O)NCC(C)C)cc2)c1` [Compound 15, N-isobutyl-2-methyl-2-(3′-methylbiphenyl-4-yl)propanamide]: the EC50 under setting [1] was found to be 3000 nM. On to `CCOCc1cncc(-c2ccc(C(C)(C)C(=O)NCC(C)C)cc2)c1` [Compound 26, 2-(4-(5-(ethoxymethyl)pyridin-3-yl)phenyl)-N-isobutyl-2-methylpropanamide], for which the EC50 under setting [1] was found to be 260 nM. For `CCC(C)NC(=O)[C@@H](C)c1ccc(-c2ccccc2)c(F)c1` (stereo partly drawn) [Compound A2], the EC50 (Table A, read-out: SWEET EC50) worked out at 2380 nM.

`CCC(COC)NC(=O)C(C)(C)c1ccc(-c2cncc(C#N)c2)cc1` (stereo not drawn) [Compound A62]: the EC50 (Table A, read-out: SWEET EC50) was 1220 nM. The same measure, in the same setting: the same measure for `COCc1cccc(-c2ccc(C(C)(C)C(=O)NC(C)C)cc2)c1` [Compound A57]: 920 nM; for `CC(C)CNC(=O)C(C)(C)c1ccc(-c2cccnc2)cc1` [Compound A56]: 770 nM.

As for `CCCNC(=O)C(C)(C)c1ccc(-c2cncc(C#N)n2)cc1` [Compound A52], the EC50 (Table A, read-out: SWEET EC50) turned out to be 470 nM. On the same count and under the same terms, the same measure for `CC[C@H](C)CNC(=O)C(C)(C)c1ccc(-c2cncc(C#N)n2)cc1` [Compound A82]: 30 nM.

For `COC(=O)c1cccc(-c2ccc(C(C)(C)C(=O)NCC(C)C)cc2)c1` [Compound 10, Methyl 4′-(1-(isobutylamino)-2-methyl-1-oxopropan-2-yl)biphenyl-3-carboxylate], under setting [1], the EC50 was 900 nM.

As to `CSc1ccccc1-c1ccc(C(C)(C)C(=O)NCC(C)C)cc1` [Compound A14], the EC50 (Table A, read-out: SWEET EC50) was 9000 nM. Turning to `COC(C)CNC(=O)C(C)(C)c1ccc(-c2cncc(C#N)n2)cc1` (stereo not drawn) [Compound 45, 2-(4-(6-cyanopyrazin-2-yl)phenyl)-N-(2-methoxypropyl)-2-methylpropanamide], the EC50 under setting [1] was determined as 920 nM.
